Results from ChEMBL document CHEMBL1138723, “Design of bivalent ligands using hydrogen bond linkers: synthesis and evaluation of inhibitors for human beta-tryptase” (Bioorg Med Chem Lett, 2004).

Assays:
[1] = target: Tryptase beta-1 (Homo sapiens, UniProt Q15661); assay: Inhibitory activity against human mast cell tryptase beta
[2] = target: Voltage-gated inwardly rectifying potassium channel KCNH2 (Homo sapiens, UniProt Q12809); assay: Inhibitory activity against human Potassium channel HERG
[3] = target: Cytochrome P450 2C9 (Homo sapiens, UniProt P11712); assay: Inhibitory activity against cytochrome P450 determined using human liver microsome upon 15 min incubation with probes substrates Tolbutamide (2C9); format: ADME, microsomes
Sequence of Cytochrome P450 2C9 (P11712 whole entry): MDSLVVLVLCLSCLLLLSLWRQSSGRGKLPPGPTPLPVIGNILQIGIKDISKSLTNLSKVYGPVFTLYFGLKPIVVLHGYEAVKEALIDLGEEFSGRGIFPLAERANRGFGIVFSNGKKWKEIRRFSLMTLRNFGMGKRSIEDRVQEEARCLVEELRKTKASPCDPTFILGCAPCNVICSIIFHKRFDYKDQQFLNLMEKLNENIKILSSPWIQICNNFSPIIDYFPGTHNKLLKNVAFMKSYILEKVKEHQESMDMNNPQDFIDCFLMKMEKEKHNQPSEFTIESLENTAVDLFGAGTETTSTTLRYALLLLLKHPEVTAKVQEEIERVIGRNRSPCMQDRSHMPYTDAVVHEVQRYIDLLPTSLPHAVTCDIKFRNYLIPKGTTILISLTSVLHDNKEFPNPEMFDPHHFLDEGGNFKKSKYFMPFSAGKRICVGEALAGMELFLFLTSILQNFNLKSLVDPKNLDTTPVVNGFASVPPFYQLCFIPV

[4] = target: Cytochrome P450 2C19 (Homo sapiens, UniProt P33261); assay: Inhibitory activity against cytochrome P450 determined using human liver microsome upon 15 min incubation with probes substrates s-mephenytoin (2C19); format: ADME, microsomes
Sequence of Cytochrome P450 2C19 (P33261 whole entry): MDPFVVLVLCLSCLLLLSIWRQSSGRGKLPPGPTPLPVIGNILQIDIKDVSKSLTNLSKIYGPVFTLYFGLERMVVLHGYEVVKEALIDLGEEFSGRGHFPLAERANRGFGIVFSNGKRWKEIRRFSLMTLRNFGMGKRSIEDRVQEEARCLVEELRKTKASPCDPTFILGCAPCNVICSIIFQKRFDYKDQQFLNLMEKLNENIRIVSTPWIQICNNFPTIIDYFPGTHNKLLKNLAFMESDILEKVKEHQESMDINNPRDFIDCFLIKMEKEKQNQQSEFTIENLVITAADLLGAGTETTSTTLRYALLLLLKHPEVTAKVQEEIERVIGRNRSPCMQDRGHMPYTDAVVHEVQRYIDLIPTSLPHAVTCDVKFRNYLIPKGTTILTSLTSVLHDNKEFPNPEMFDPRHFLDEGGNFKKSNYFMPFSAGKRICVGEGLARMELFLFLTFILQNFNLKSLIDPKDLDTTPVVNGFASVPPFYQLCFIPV

Sequence of Tryptase beta-1 (Q15661 whole entry): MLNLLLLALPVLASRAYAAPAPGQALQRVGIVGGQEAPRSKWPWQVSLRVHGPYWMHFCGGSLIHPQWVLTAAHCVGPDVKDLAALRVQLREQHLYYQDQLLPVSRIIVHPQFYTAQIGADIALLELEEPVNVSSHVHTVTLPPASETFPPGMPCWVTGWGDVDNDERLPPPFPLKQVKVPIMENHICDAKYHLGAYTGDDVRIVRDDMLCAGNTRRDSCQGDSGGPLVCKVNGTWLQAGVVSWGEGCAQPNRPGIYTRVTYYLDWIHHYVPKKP
Sequence of Voltage-gated inwardly rectifying potassium channel KCNH2 (Q12809 whole entry): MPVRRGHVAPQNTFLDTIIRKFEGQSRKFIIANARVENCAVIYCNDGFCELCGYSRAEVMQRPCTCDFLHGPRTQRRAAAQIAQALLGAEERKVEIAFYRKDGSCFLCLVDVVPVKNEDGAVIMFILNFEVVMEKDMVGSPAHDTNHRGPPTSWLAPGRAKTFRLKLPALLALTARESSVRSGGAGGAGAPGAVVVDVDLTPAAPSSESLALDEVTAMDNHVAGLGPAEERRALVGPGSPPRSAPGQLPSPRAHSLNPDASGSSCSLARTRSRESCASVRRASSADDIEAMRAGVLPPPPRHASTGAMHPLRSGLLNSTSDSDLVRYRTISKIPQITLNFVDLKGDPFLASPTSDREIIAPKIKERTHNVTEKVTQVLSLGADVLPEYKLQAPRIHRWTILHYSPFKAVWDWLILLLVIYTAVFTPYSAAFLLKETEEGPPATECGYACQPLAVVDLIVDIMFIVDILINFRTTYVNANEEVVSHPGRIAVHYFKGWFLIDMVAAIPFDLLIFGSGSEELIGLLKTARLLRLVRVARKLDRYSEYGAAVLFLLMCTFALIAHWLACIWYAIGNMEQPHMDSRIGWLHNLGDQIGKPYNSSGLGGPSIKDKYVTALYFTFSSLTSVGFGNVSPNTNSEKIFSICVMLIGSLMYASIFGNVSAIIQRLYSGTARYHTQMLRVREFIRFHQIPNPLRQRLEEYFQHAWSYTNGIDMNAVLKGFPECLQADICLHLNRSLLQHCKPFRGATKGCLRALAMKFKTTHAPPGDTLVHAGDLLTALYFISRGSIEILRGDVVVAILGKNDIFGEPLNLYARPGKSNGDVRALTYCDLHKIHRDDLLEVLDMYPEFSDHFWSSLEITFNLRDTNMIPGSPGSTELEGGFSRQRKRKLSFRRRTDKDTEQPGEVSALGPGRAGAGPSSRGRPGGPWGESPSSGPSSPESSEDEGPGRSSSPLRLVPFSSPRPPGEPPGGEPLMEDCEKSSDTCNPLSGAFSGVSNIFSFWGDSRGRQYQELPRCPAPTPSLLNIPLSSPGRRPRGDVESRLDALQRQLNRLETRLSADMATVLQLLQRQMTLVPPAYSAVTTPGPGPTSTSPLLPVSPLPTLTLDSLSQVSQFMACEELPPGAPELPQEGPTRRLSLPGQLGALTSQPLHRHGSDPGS

Row | Compound | Ki [1] [nM] | IC50 [2] [nM] | IC50 [3] [nM] | IC50 [4] [nM]
1 | NCc1ccc(F)c(C2CCN(C(=O)c3cccc(-c4nc(-c5cccs5)no4)c3)CC2)c1 | 4.3 | 800 | 480 | 2190
2 | NCc1cccc(C2CCN(C(=O)c3cc(C(N)=O)cc(-c4nc(-c5cccs5)no4)c3)CC2)c1 | 1.5 | – | – | –
3 | NCc1ccc(F)c(C2CCN(C(=O)c3cc(C(N)=O)cc(-c4nc(-c5cccs5)no4)c3)CC2)c1 | 1.3 | – | – | –

Further lines, with some results ahead:

Row | Ki [1] [nM] | Compound | IC50 [2] [nM] | IC50 [3] [nM] | IC50 [4] [nM]
4 | 59 | CCOC(=O)c1cc(C(=O)N2CCC(c3cc(CN)ccc3F)CC2)cc(-c2nc(-c3cccs3)no2)c1 | – | – | –
5 | 88 | NCc1ccc(F)c(C2CCN(C(=O)c3cc(C(=O)O)cc(-c4nc(-c5cccs5)no4)c3)CC2)c1 | 76800 | > 50000 | > 50000
